Like-named read-outs stand apart in the source and are kept apart here.
Columns and labels:
[1] = tested on: carrageenin oedema; assay: Carrageenin oedema test for anti-inflammatory activity; assay type: in vivo, Male Wistar rats; conditions: rat, per os, aqueous tragacanth suspension, 30 minutes before carrageenin; paw volume 3 hours after carrageenin injection; dose to inhibit the response by 50%; unit assumed
Protocol: Carrageenin oedema test for anti-inflammatory activity
Male Wistar rats weighing 120-150 g were fasted overnight and then received a test compound per os as an aqueous tragacanth suspension. 30 minutes later, inflammation was induced by the subcutaneous injection of 0.05 ml of a 1% carrageenin suspension into the plantar tissue of a hind paw of each rat [Winter et al., Proc. Soc. […] The anti-oedema activity was measured volumetrically, by assessing the response, as calculated from the following equation: […]
where Vo and V represent, respectively, the paw volume immediately before and 3 hours after the carrageenin injection.

[2] = tested on: pressure-induced pain; assay: Pain test for analgesic activity (modified Randall-Selitto, Brewers' yeast inflamed paw pressure); assay type: in vivo, Male Wistar-Imamichi rats; conditions: read-out: Analgesic activity ED50
Protocol: Pain test for analgesic activity
This test was conducted according to a modification of the method reported by L. O. Randall and J. J. Selitto in Arch. Int.
Male Wistar-Imamichi rats of 4 weeks of age and weighing 60-90 g were injected with 0.1 ml of a 20% by weight suspension of Brewers' yeast in the right hind paw. […] Each of these was given orally a test compound as an aqueous tragacanth suspension. 1 and 2 hours after administration of the test compound, the pain threshold was determined by observing pain responses (such as struggling or squeaking) when the inflamed or normal paw was subjected to pressure by a machine (Ugo-Basile).

[3] = rat, oral, aqueous tragacanth suspension, pain threshold 1 and 2 hours after administration, effective = at least twice mean pain threshold of controls, Litchfield and Wilcoxon

| Compound | Anti-inflammatory activity ID50 [1] [mg/kg] | ED50 ([2]; Rattus norvegicus, po) [mg/kg] | ED50 [2, 3] [mg/kg] |
| --- | --- | --- | --- |
| COc1ccc2c(c1)c(CC(=O)O)c(C)n2C(=O)c1ccc(Cl)cc1 [B, Indomethacin] | 2.2 | 1.6 |  |
| CC(C(=O)O)c1ccc(C=C2CCCCC2O)cc1 (stereo not drawn) [A, 2-[4-(2-hydroxycyclohexylidenemethyl)phenyl]propionic acid] | 0.98 |  | 0.35 |
| CC(C(=O)O)c1ccc(C=C2CCCCC2=O)cc1 (stereo not drawn) [C, 2-[4-(2-oxocyclohexylidenemethyl)phenyl]propionic acid] | 1.2 |  | 0.94 |
